`O=C(NCC1CCN(C(=O)OCc2ccccc2)CC1)c1ccc(O)cc1` [Example 1, 4-[(4-Hydroxy-benzoylamino)-methyl]-piperidine-1-carboxylic acid benzyl ester]: the melting point – broadly, the temperature of the solid-liquid transition – was 122 to 123 °C.

These data come from US20040204341A1, “Nr2b receptor antagonists for the treatment or prevention of migraines” (priority 2001, published 2004).
